In series [1] the target is T1, Neutrophil elastase (Homo sapiens) (UniProt P08246).
T1 sequence (whole entry): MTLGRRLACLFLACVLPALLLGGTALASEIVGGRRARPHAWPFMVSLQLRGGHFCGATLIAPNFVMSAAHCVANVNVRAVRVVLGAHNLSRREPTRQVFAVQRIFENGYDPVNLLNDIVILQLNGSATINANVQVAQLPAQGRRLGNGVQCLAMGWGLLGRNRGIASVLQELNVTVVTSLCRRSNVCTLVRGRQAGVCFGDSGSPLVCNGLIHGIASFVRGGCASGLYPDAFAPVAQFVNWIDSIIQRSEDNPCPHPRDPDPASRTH
In words: Human leukocyte elastase (HLE) inhibitory activity is reported as kinetic constant (kobs/[I] - time dependent inhibition).

Series [2] concerns the target T2, Neutrophil elastase (Homo sapiens, UniProt P08246).
T2 sequence (P08246 whole entry): T1 sequence (whole entry)
In words: Concentration required for inhibition of human leukocyte elastase (HLE).

Series [3] is described as follows: Half-life period was determined, by hydrolyzing under mild conditions (pH = 8.0, 25 degrees Celsius). Format: ADME.

As to `CCOC(=O)N1C(=O)[C@@H](CC)[C@@H]1Oc1ccc(C(=O)O)cc1`, the k obs / 1 in series [1] was 6350 M⁻¹ s⁻¹.

In series [2], `CC[C@@H]1C(=O)N(C(=O)NC)[C@H]1Oc1ccc(C(=O)O)cc1` displayed an inhibition constant Ki of 16.5 µM.

In series [1], `CC[C@@H]1C(=O)N(C(=O)NCc2ccccc2)[C@H]1Oc1ccc(C(=O)O)cc1` had a k obs / 1 of 2480 M⁻¹ s⁻¹. For the compound `CC[C@@H]1C(=O)N(C(C)=O)[C@H]1Oc1ccc(C(=O)O)cc1`, in series [3], the half-life was about 9 h. Moreover, the k obs / 1 in series [1] was found to be 6680 M⁻¹ s⁻¹. Turning to `CC[C@@H]1C(=O)N[C@H]1Oc1ccc(C(=O)O)cc1`, in series [2], the affinity corresponds to a Ki of 290 µM. Besides, the half-life in series [3] is about 32 h.

On to `CC[C@@H]1C(=O)N(C(C)=O)[C@H]1OC(C)=O` (racemic), for which, in series [3], the half-life is about 2 h.

In general, Ki refers to the dissociation constant of the complex between target and ligand, obtained from inhibition or displacement. The low end stands for a stronger hold on the target, the high end for a looser hold on the target. As a reminder, the half-life is the time in which the quantity being followed falls by half. A lower half-life goes with fast loss.

The values above are taken from ChEMBL document CHEMBL1126431, “The effect of N-acyl substituents on the stability of monocyclic -lactam inhibitors of human leukocyte elastase” (Bioorg Med Chem Lett, 1992).
